According to PMC8995034 (Science Translational Medicine, 2022):
pEC50: −log10 of the molar value. Several values for one entry are separate records, joined by “and”; a condition that tells them apart may be missing. Equal values may be shown once. Read-outs that look alike come from different tables or passages of the source.

What was measured:
in vitro = details: human, % Cytotoxicity (Fig1E)
in vivo = details: BALB/c, mouse, po, 20 mg/kg
MERS-CoV = test: microbe, parasite or virus in culture; format: cell-based; details: Middle East respiratory syndrome-related coronavirus, Calu-3 2B4, read-out: EC50 against MERS-CoV
SARS-CoV-2 nLUC = test: microbe, parasite or virus in culture; format: cell-based; details: for inhibition at 0.00152 µM: drug 0.00152 µM; for inhibition at 0.00457 µM: drug 0.00457 µM; for inhibition at 0.01372 µM: drug 0.01372 µM; for inhibition at 0.04115 µM: drug 0.04115 µM; for inhibition at 0.37037 µM: drug 0.37037 µM; for inhibition at 3.33333 µM: drug 3.33333 µM; for EC50: read-out: Average EC50 (nM) A549-hACE2; for pEC50: read-out: average half-maximum effective concentration (EC50), SARS-CoV-2 nLUC replication; for Relative Light Units (RLU) (FigS1A): replicate wells
SARS-CoV-2 fLUC = test: microbe, parasite or virus in culture; format: cell-based; details: for pEC50: Severe acute respiratory syndrome coronavirus 2, NHBE, 24 h, read-out: EC50, inhibition of SARS-CoV-2 replication in NHBE cultures; for % Inhibition (Fig1F): duplicate values; for Relative Light Units (RLU) (FigS1C): duplicates
[1] = African green monkeys; cited from earlier work
[2] = system: alpha, beta, and gamma SARS-CoV-2 VOCs; details: cited from earlier work
[3] = in vivo; cited from earlier work
SARS-CoV-2 = format: cell-based
[4] = Severe acute respiratory syndrome coronavirus 2, read-out: % Inhibition (Fig1D)
[5] = Severe acute respiratory syndrome coronavirus 2, drug 10 µM, read-out: % Inhibition (Fig1D)
[6] = Severe acute respiratory syndrome coronavirus 2
[7] = concentration 0.222222 (unit not given)
[8] = concentration 0.666667 (unit not given)
[9] = concentration 2 (unit not given)

N#C[C@@]1(c2ccc3c(N)ncnn23)O[C@H](CO)[C@@H](O)[C@H]1O [GS-441524, reference compound]
cytotoxicity (in vitro; drug 0.00152 µM): 4.91%
cytotoxicity (in vitro; drug 0.00457 µM): 3.11%
cytotoxicity (in vitro; drug 0.01372 µM): 6.91%
cytotoxicity (in vitro; drug 0.04115 µM): 2.96%
cytotoxicity (in vitro; drug 0.12346 µM): 5.66%
cytotoxicity (in vitro; drug 0.37037 µM): 7.63%
cytotoxicity (in vitro; drug 3.33333 µM): 9.21%
cytotoxicity (in vitro; drug 10 µM): 7.34%
half-life (in vivo): ~1 h
pEC50 (MERS-CoV): 5.68
inhibition at 0.00152 µM (SARS-CoV-2 nLUC; [4]): 5.76%
inhibition at 0.00457 µM (SARS-CoV-2 nLUC; [4]): 7.88%
inhibition at 0.01372 µM (SARS-CoV-2 nLUC; [4]): 0.08%
inhibition at 0.04115 µM (SARS-CoV-2 nLUC; [4]): 5.14%
inhibition at 0.37037 µM (SARS-CoV-2 nLUC; [4]): -4.48%
inhibition at 3.33333 µM (SARS-CoV-2 nLUC; [4]): 42%
inhibition at 10 µM (SARS-CoV-2 nLUC; [5]): 99%
EC50 (SARS-CoV-2 nLUC; [6]): 3370 nM
pEC50 (SARS-CoV-2 nLUC; [6]): 5.47
pEC50 (SARS-CoV-2 fLUC): 5.61
% Inhibition (Fig1F) (SARS-CoV-2 fLUC; concentration 0.205761 (unit not given)): 16.6269% and 13.9332%
% Inhibition (Fig1F) (SARS-CoV-2 fLUC; concentration 0.617284 (unit not given)): 25.1934% and 32.3249%
% Inhibition (Fig1F) (SARS-CoV-2 fLUC; concentration 1.85185 (unit not given)): 47.2673% and 45.1609%
% Inhibition (Fig1F) (SARS-CoV-2 fLUC; concentration 5.55556 (unit not given)): 89.9387% and 91.061%
% Inhibition (Fig1F) (SARS-CoV-2 fLUC; concentration 16.6667 (unit not given)): 99.9354% and 99.9435%
% Inhibition (Fig1F) (SARS-CoV-2 fLUC; concentration 50 (unit not given)): 99.9909% and 99.9933%

CC(C)C(=O)OCC1OC(C#N)(c2ccc3c(N)ncnn23)C(OC(=O)C(C)C)C1OC(=O)C(C)C (centres unmarked) [GS-621763]
cytotoxicity (in vitro; drug 0.00152 µM): 5.08%
cytotoxicity (in vitro; drug 0.00457 µM): 2.88%
cytotoxicity (in vitro; drug 0.01372 µM): 4.34%
cytotoxicity (in vitro; drug 0.04115 µM): 5.67%
cytotoxicity (in vitro; drug 0.12346 µM): 6.43%
cytotoxicity (in vitro; drug 0.37037 µM): 7.02%
cytotoxicity (in vitro; drug 1.11111 µM): -1.19%
cytotoxicity (in vitro; drug 3.33333 µM): 1.11%
cytotoxicity (in vitro; drug 10 µM): 4.64%
pEC50 (MERS-CoV): 6.13
intact ester in plasma [1]: no or very minimal intact ester observed in plasma
antiviral activity against alpha, beta, and gamma SARS-CoV-2 VOCs [2]: potently antiviral
inhibition at 0.00152 µM (SARS-CoV-2 nLUC; [4]): -15.2%
inhibition at 0.00457 µM (SARS-CoV-2 nLUC; [4]): -13.7%
inhibition at 0.01372 µM (SARS-CoV-2 nLUC; [4]): -12.3%
inhibition at 0.04115 µM (SARS-CoV-2 nLUC; [4]): -15.7%
inhibition at 0.12346 µM (SARS-CoV-2 nLUC; Severe acute respiratory syndrome coronavirus 2, drug 0.12346 µM, read-out: % Inhibition (Fig1D)): -15.4%
inhibition at 0.37037 µM (SARS-CoV-2 nLUC; [4]): -23%
inhibition at 1.11111 µM (SARS-CoV-2 nLUC; Severe acute respiratory syndrome coronavirus 2, drug 1.11111 µM, read-out: % Inhibition (Fig1D)): -42%
inhibition at 3.33333 µM (SARS-CoV-2 nLUC; [4]): 94.8%
inhibition at 10 µM (SARS-CoV-2 nLUC; [5]): 99.3%
EC50 (SARS-CoV-2 nLUC; [6]): 2800 nM
pEC50 (SARS-CoV-2 nLUC; [6]): 5.55
Relative Light Units (RLU) (FigS1A) (SARS-CoV-2 nLUC; drug 0.004 µM): 1.49E+08 RLU and 1.35E+08 RLU and 1.13E+08 RLU
Relative Light Units (RLU) (FigS1A) (SARS-CoV-2 nLUC; drug 0.04 µM): 1.45E+08 RLU and 1.37E+08 RLU and 1.12E+08 RLU
Relative Light Units (RLU) (FigS1A) (SARS-CoV-2 nLUC; drug 0.12 µM): 1.47E+08 RLU and 1.37E+08 RLU and 1.32E+08 RLU
Relative Light Units (RLU) (FigS1A) (SARS-CoV-2 nLUC; drug 0.37 µM): 1.64E+08 RLU and 1.46E+08 RLU and 1.36E+08 RLU
Relative Light Units (RLU) (FigS1A) (SARS-CoV-2 nLUC; drug 1.1 µM): 1.69E+08 RLU and 1.76E+08 RLU and 1.62E+08 RLU
Relative Light Units (RLU) (FigS1A) (SARS-CoV-2 nLUC; drug 3.3 µM): 6190000 RLU and 6040000 RLU and 1.36E+07 RLU
Relative Light Units (RLU) (FigS1A) (SARS-CoV-2 nLUC; drug 10 µM): 708000 RLU and 801000 RLU and 866000 RLU
intact ester in plasma [3]: no or very minimal intact ester observed in plasma
pEC50 (SARS-CoV-2 fLUC): 6.90
% Inhibition (Fig1F) (SARS-CoV-2 fLUC; [7]): 65.5149% and 78.3611%
% Inhibition (Fig1F) (SARS-CoV-2 fLUC; [8]): 97.4321% and 98.0439%
% Inhibition (Fig1F) (SARS-CoV-2 fLUC; [9]): 99.8762% and 99.9108%
Relative Light Units (RLU) (FigS1C) (SARS-CoV-2 fLUC; drug concentration 0.00823): 7706513 RLU and 5857613 RLU
Relative Light Units (RLU) (FigS1C) (SARS-CoV-2 fLUC; drug concentration 0.024691): 7329653 RLU and 5548473 RLU
Relative Light Units (RLU) (FigS1C) (SARS-CoV-2 fLUC; drug concentration 0.074074): 5615903 RLU and 3756783 RLU
Relative Light Units (RLU) (FigS1C) (SARS-CoV-2 fLUC; drug concentration 0.222222): 2451403 RLU and 1538223 RLU
Relative Light Units (RLU) (FigS1C) (SARS-CoV-2 fLUC; drug concentration 0.666667): 182543 RLU and 139053 RLU
Relative Light Units (RLU) (FigS1C) (SARS-CoV-2 fLUC; drug concentration 2): 8803.33 RLU and 6343.33 RLU
antiviral activity / infectious virus titers in HAE cell cultures (SARS-CoV-2): confirmed the antiviral activity
antiviral activity / infectious virus titers in HAE cell cultures (SARS-CoV-2; listed as GS621763): reduces viral titers

CC(C)C(=O)OC[C@H]1O[C@@H](n2ccc(NO)nc2=O)[C@H](O)[C@@H]1O [MPV, molnupiravir, reference compound]
NHC plasma exposures, dose proportionality (MPV 30 mg/kg or 100 mg/kg oral, BID): dose proportional increases in NHC plasma exposures

O=c1nc(NO)ccn1[C@@H]1O[C@H](CO)[C@@H](O)[C@H]1O [NHC]
Plasma NHC, FigS5 (Group 1, time 12.5, individual mice, oral MPV): 48.2 μM and 56.9 μM (2×) and 55.4 μM

CCC(CC)COC(=O)C(C)NP(=O)(OCC1OC(C#N)(c2ccc3c(N)ncnn23)C(O)C1O)Oc1ccccc1 (centres unmarked) [RDV (GS-5734)]
% Inhibition (Fig1F) (SARS-CoV-2 fLUC; concentration 0.024691 (unit not given)): 24.385% and 40.4776%
% Inhibition (Fig1F) (SARS-CoV-2 fLUC; concentration 0.074074 (unit not given)): 79.3894% and 81.2356%
% Inhibition (Fig1F) (SARS-CoV-2 fLUC; [7]): 99.4779% and 99.6549%
% Inhibition (Fig1F) (SARS-CoV-2 fLUC; [8]): 99.9727% and 99.9783%
% Inhibition (Fig1F) (SARS-CoV-2 fLUC; [9]): 99.9953% and 99.9938%

CCC(CC)COC(=O)[C@H](C)N[P@](=O)(OC[C@H]1O[C@@](C#N)(c2ccc3c(N)ncnn23)[C@H](O)[C@@H]1O)Oc1ccccc1 [RDV, remdesivir, reference compound]
pEC50 (MERS-CoV): 6.80
EC50 (SARS-CoV-2 nLUC; [6]): 294 nM
pEC50 (SARS-CoV-2 nLUC; [6]): 6.54
pEC50 (SARS-CoV-2 fLUC): 7.43
